In patent US20230099106A1, “PRODRUGS USEFUL IN ADOPTIVE CELL THERAPY” (Memorial Sloan Kettering Cancer Center, priority 2020, published 2023):
Read-outs that look alike come from different tables or passages of the source.

Tests used:
HCC827 (adenocarcinoma) = assay: Cell-Titer Glo cytotoxicity assay, HCC827 cells; format: cell-based; settings: for IC50: Homo sapiens, 48 hours of drug treatment, ≥ 6 drug dilutions (3-fold); for cytotoxicity (cell viability): HCC827, 48 hrs
Description: FIG. 3 provides the results of HCC827 cells incubated for 48 hrs. with or without CPG2 in the presence of APdMG-Glu where cell viability was measured by Cell-Titre Glo, according to the working examples. The viability of the cells incubated with the active version of the drug (O-(3-aminopropyl)-des-morpholino-gefitinib) are shown for comparison.
(§1) Prodrug/Drug IC50 and trans and cis-toxicity assays with secreted enzyme were performed using Cell-Titer Glo (Promega). Cells were analyzed in triplicate wells of a 96-well dish and equivalent volume of Cell-Titer Glo reagent was added to each well. Following a 10-minute incubation at room temperature samples were transferred to White 96-well Optiplate (Perkin Elmer) and luminescence was measured on a SpectraMax M2 plate reader (Molecular Devices). Data were analyzed with SoftMax Pro software.

PC9 (adenocarcinoma) = assay: Cell-Titer Glo cytotoxicity assay, PC9 cells; format: cell-based; settings: for IC50: Homo sapiens, PC-9, 48 hours of drug treatment, ≥ 6 drug dilutions (3-fold)
Description: as §1

CPG2 [1] = target: T1, CPG2 (Pseudomonas sp., UniProt P06621); format: biochemical; settings: for Vmax: disappearance of substrate and/or appearance of product
T1 construct: HA (C); His (C); host or cells: E. coli
T1 sequence (P06621 23-415): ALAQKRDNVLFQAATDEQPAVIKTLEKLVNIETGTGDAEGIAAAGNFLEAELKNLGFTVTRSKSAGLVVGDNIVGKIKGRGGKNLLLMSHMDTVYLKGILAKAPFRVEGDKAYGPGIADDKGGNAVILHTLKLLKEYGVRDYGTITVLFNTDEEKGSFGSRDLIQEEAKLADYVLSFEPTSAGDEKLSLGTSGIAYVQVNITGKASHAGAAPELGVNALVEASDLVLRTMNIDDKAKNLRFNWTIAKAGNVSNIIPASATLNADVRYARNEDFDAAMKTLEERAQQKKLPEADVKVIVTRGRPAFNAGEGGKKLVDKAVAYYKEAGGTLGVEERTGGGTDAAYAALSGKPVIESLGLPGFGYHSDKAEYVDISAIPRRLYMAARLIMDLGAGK
Source text: CPG2 proteins were produced and purified by GenScript. Constructs contain c-terminal HA and His epitope tags and were purified by nickel columns.

CPG2 [2] = target: T1, CPG2; assay: Amplex Red glutamate release assay with recombinant CPG2; format: biochemical; settings: incubated with recombinant CPG2, FIG. 2
Description: FIG. 2 provides the results of incubating APdMG-Glu, an embodiment of a prodrug compound of the present technology, with increasing concentration of recombinant CPG2 where glutamate release was measured in an Amplex Red assay, according to the working examples.
Recombinant CPG2 enzyme was incubated with prodrugs in CPG2 reaction buffer (1M TrisHCL, 2 mM ZnCl2) for 2 hr at 37° C. and the enzyme/prodrug mixture was combined 1:1 with Amplex Red™ Glutamate Oxidase Assay mixture (Thermo cat # A12221). Following 30 min at 37° C. fluorescent emission at 590 nm was measured on a SpectraMax M2 plate reader (Molecular Devices). Data were analyzed with SoftMax Pro software.

[3] = substrate of CPG2, RapidFire-MS

| Compound | IC50 (HCC827 (adenocarcinoma); HCC827) | IC50 (PC9 (adenocarcinoma)) | Km (CPG2 [1]) | kcat (CPG2 [1]; [3]) | Vmax (CPG2 [1]; [3]) | Km (CPG2 [1]; [3]) | cytotoxicity (cell viability) (HCC827 (adenocarcinoma); plus recombinant CPG2, FIG. 3) | cytotoxicity (cell viability) (HCC827 (adenocarcinoma); prodrug alone without CPG2, FIG. 3) | Selective index (HCC827 (adenocarcinoma); HCC827, prodrug vs active drug) | Selective index (PC9 (adenocarcinoma); prodrug vs active drug) | cleavage of the glutamate moiety (glutamate release) (CPG2 [2]) |
| --- | --- | --- | --- | --- | --- | --- | --- | --- | --- | --- | --- |
| COc1cc2ncnc(Nc3ccc(F)c(Cl)c3)c2cc1OCCCN [APdMG, 6-(3-Aminopropoxy)-N-(3-chloro-4-fluorophenyl)-7-methoxyquinazolin-4-amine] | 20 nM | 210 nM | – | – | – | – | – | – | – | – | – |
| CN(Cc1cnc2nc(N)nc(N)c2n1)c1ccc(C(=O)N[C@@H](CCC(=O)O)C(=O)O)cc1 [methotrexate, reference compound] | – | – | 9.45 µM | 10.36 s⁻¹ | 0.39 µM/s | – | – | – | – | – | – |
| COc1cc2ncnc(Nc3ccc(F)c(Cl)c3)c2cc1OCCCNC(=O)OCc1ccc(NC(=O)N[C@@H](CCC(=O)O)C(=O)O)cc1 [APdMG-Glu, ((4-((((3-((4-((3-chloro-4-fluorophenyl)amino)-7-methoxyquinazolin-6-yl)oxy)propyl)carbamoyl)oxy)methyl)phenyl)carbamoyl)-L-glutamic acid] | 110 nM | 240 nM | – | 0.137 s⁻¹ | 0.10 µM/s | 2.25 µM | cytotoxicity comparable to that of the parent drug gefitinib | not APdMG-Glu alone | 5.5 | 6 | confirm cleavage of the glutamate moiety |
